Among the data in ChEMBL document CHEMBL5137062, “Overview of Methionine Adenosyltransferase 2A (MAT2A) as an Anticancer Target: Structure, Function, and Inhibitors” (J Med Chem, 2022) are IC50 and inhibition values, retold here.

Experiment [1] deals with T1, S-adenosylmethionine synthase isoform type-2 (Homo sapiens, UniProt P31153). The experiment is described as follows: Inhibition of human MAT2A expressed in baculovirus infected Sf9 cells expression system assessed as S-adenosyl methionine production using L-methionine as substrate pretreated for 60 mins followed by L-methionine and ATP addition.
Experiment [2] has as its system HCT-116. The experiment is described as follows: Antiproliferative activity against human HCT-116 cells expressing MTAP assessed as cell growth inhibition incubated for 24 hrs by Cell Titer Glo analysis. Type of experiment: functional, cell-based. As to conditions: HCT-116, 24 h.
The target of experiment [3] is T1, S-adenosylmethionine synthase isoform type-2. As to the kind of experiment: Inhibition of human MAT2A assessed as S-adenosyl methionine production using L-methionine as substrate pretreated for 60 mins followed by L-methionine and ATP addition by colorimetric analysis.
Experiment [4] shares this target. The experiment is described as follows: Inhibition of human recombinant His-tagged MAT2A expressed in Escherichia coli expression system assessed as S-adenosyl methionine production using L-methionine as substrate incubated for 20 mins followed by L-methionine and ATP addition by malachite green phosphate assay.
Experiment [5] shares this target. The experiment is described as follows: Inhibition of MAT2A (unknown origin) assessed as S-adenosyl methionine production using L-methionine as substrate pretreated for 60 mins followed by L-methionine and ATP addition.
Experiment [6] shares this target. As to the kind of experiment: Inhibition of N-terminal TEV cleavable 6His-tagged human MAT2A (1 to 395 residues) expressed in Escherichia coli BL21 (DE3) cells assessed as S-adenosyl methionine production using L-methionine as substrate incubated for 30 mins followed by L-methionine and ATP addition by MS/MS analysis.
For experiment [7] the target is unchanged. As to the kind of experiment: Inhibition of MAT2A in human NCI-H520 cells transfected with MAT2A empty vector assessed as inhibition of S-adenosyl methionine production measured after 6 hrs by Rapid Fire Mass Spectrometry analysis. Type of experiment: cell-based.
The target of experiment [8] is S-adenosylmethionine synthase isoform type-1 (Homo sapiens) (UniProt Q00266). As to the kind of experiment: Inhibition of N-terminal TEV cleavable 6His-tagged human MAT1A (1 to 334 residues) expressed in Escherichia coli BL21 (DE3) cells assessed as S-adenosyl methionine production using L-methionine as substrate incubated for 30 mins followed by L-methionine and ATP addition by MS/MS analysis relative to control.

Experiment [9] has as its target T1, S-adenosylmethionine synthase isoform type-2. The experiment is described as follows: Inhibition of MAT2A in human Huh-7 cells assessed as inhibition of S-adenosyl methionine production measured after 6 hrs by Rapid Fire Mass Spectrometry analysis. The experiment is classed as cell-based.
Experiment [10] has as its system HCT-116. The experiment is described as follows: Antiproliferative activity against human HCT-116 cells expressing MTAP assessed as cell growth inhibition measured after 6 days by Cell Titer Glo analysis. As to conditions: HCT-116, 144 h. Type of experiment: functional, cell-based. (In general: In ATP-based viability assays light output follows the ATP content of the culture.)

The nature of experiment [11]: Antiproliferative activity against human HCT116-MTAP null cells assessed as cell growth inhibition measured after 6 days by Cell Titer Glo analysis. The experiment is classed as functional, cell-based. As to conditions: 144 h.
Experiment [12] in a line: Antiproliferative activity against human HCT116-MTAP null cells assessed as cell growth inhibition incubated for 92 hrs by In-cell western analysis. The experiment is classed as functional, cell-based.
Experiment [13] is described as follows: Inhibition of rat liver MAT isozymes assessed as S-adenosyl methionine production using L-methionine as substrate in presence of ATP. Type of experiment: tissue-based.
Experiment [14] is described as follows: Inhibition of rat novikoff liver hepatoma MAT isozymes assessed as S-adenosyl methionine production using L-methionine as substrate in presence of ATP. The experiment is classed as tissue-based.

pIC50: −log10 of the molar value. Some results are limits rather than exact numbers.

T1 sequence (P31153 whole entry, canonical isoform): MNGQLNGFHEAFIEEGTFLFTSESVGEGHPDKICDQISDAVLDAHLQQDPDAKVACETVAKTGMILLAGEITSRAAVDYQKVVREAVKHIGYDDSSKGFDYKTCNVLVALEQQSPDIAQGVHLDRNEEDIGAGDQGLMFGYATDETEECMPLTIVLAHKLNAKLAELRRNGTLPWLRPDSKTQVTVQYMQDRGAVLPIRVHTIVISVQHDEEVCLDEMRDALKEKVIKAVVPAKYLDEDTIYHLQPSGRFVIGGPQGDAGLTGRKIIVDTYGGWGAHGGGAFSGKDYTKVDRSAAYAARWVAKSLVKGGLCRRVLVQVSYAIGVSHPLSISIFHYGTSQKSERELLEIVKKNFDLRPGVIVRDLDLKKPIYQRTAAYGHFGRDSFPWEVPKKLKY
Sequence of S-adenosylmethionine synthase isoform type-1 (Homo sapiens) (Q00266 whole entry, the tested form may be a part, canonical isoform): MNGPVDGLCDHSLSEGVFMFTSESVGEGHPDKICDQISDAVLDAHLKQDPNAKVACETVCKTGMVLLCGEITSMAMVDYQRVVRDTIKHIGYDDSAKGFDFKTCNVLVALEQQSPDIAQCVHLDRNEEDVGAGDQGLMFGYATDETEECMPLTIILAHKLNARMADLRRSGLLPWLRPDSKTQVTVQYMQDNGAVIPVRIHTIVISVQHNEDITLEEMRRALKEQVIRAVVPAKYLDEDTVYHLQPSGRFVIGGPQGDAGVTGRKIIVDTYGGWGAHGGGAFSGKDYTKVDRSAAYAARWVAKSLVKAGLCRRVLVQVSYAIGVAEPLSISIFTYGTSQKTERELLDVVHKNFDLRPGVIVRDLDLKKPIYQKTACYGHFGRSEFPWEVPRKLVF

One may read the pIC50 as −log10 of the IC50, conventionally taken in molar units. For `COc1ccc(N2Cc3ccc(NCC(F)(F)F)nc3N(c3ccc(-c4ncn[nH]4)cc3)C2=O)cc1`, the figures for the negative logarithm of the IC50 (pIC50) in [1] and in experiment [2] were more than 7.00 and less than 6.00, respectively.

As for `Cc1cc(-c2cnc(NC(=O)c3cccc(CN4CCCC4=O)c3)n2C)ccc1O`, the pIC50 in experiment [3] is more than 6.30.

`COc1ccc(N2C(=O)N(c3ccc4nn(C)cc4c3)Cc3cnc(NCC(F)(F)F)nc32)cc1`: the negative logarithm of the IC50 (pIC50) is more than 7.00 in [1] and less than 6.00 in experiment [2].

Consider `Cc1cc(C)c(-c2cnc(NC(=O)c3cccc(Cn4cccn4)c3)n2C)cc1C`, for which the pIC50 in experiment [3] is more than 6.30.

Regarding `CN(C)c1ccc(/C=C/c2c(F)cccc2F)cc1`, in [4], the pIC50 is 5.31.

On to `CCOc1ncc2cc(C3=CC4N=C(CCN5CCC(O)C5)N(C)C4C=C3)c(=O)n(-c3ccc(OC(F)F)cc3)c2n1` (stereo not given), for which the pIC50 in [5] is 8.33.

In the case of `CNc1ccc(/C=C/c2c(F)cccc2Cl)cc1`, the pIC50 in experiment [4] was 5.68.

One may read the inhibition as the change of the read-out against control, counted positive when it falls. Consider `CN(C)CCc1nnc2cc(-c3ccccc3)c3cc(Cl)ccc3n12`, for which the negative-log IC50 (pIC50) in experiment [6] is 6.38; in experiment [7], 5.92; in experiment [9], 6.65. Further, the inhibition in experiment [8] came out at 50%.

Consider `CCOc1ncc2cc(-c3ccc4ncn(C)c4c3)c(=O)n(-c3ccc(OC(F)F)cc3)c2n1`, for which the results for the pIC50 in [10], in [11] and in experiment [5] were 5.42, 7.07 and 7.71, respectively.

Regarding `[2H]C([2H])([2H])Oc1ccc(N2C(=O)N(c3ccc4nn(C)cc4c3)Cc3cnc(OCC(F)F)nc32)cc1`, the figures for the pIC50 in experiment [1] and in experiment [2] were more than 7.00 and less than 6.00, respectively.

In the case of `Cc1cc(C)c(-c2cnc(NC(=O)c3cccc(Cn4ccccc4=O)c3)n2C)cc1Br`, the pIC50 in experiment [3] was more than 6.30.

Consider `CCNc1ccc2nn(-c3ccc4nn(C)cc4c3)c(=O)c(-c3ccc(Cl)cc3)c2n1`, for which the results for the pIC50 in experiment [1] and in [2] were more than 7.00 and less than 6.00, respectively.

As for `CCOc1ncc2cc(-c3ccc(OC)cc3C)c(=O)n(-c3ccc(OC(F)F)cc3)c2n1`, in experiment [5], the pIC50 is 7.15.

With `Cc1cc(=O)n2nc(C)c(-c3ccccc3)c2[nH]1`, the pIC50 is 8.10 in experiment [1] and 8.05 in [12].

Take `Cn1cnc2ccc(-c3cc4cnc(NCC(F)(F)F)nc4n(-c4ccc(OC(F)F)cc4)c3=O)cc21`: the pIC50 in [10] was less than 5.00; in experiment [11], 6.99; in experiment [5], 7.44.

`CCNc1ccc2nn(-c3ccc4nc(C)n(C)c4c3)c(=O)c(-c3ccc(C(F)F)cc3)c2n1`: the pIC50 in [1] is more than 7.00; in [2] it was less than 6.00.

Take `NC1(C(=O)O)CCCC1` [CYCLOLEUCINE]: the pIC50 was 2.25 in [7], 3.68 in experiment [13], 2.89 in [9] and 3.68 in [14].

Take `COc1ccc(-c2c(=O)n(-c3ccc4ncsc4c3)nc3ccc(OCC(F)F)nc23)cc1`: the values for the pIC50 in experiment [1] and in experiment [2] were more than 7.00 and less than 6.00, respectively.
